Laboratory results from patent US10858360B2, “Tricyclic gyrase inhibitors” (priority 2011, dated 2020).
In brackets after ≈: the same amount, converted by molar mass. Where two headings read alike, the source gives them in different places.

What was measured:
S. aureus ATCC 13709 = test: MIC, S. aureus ATCC 13709 (Alamar Blue broth microdilution); type: cell-based; settings: for MIC: Staphylococcus aureus, ATCC13709, S. aureus
E. coli ATCC 25922 = test: MIC, E. coli ATCC 25922; type: cell-based; settings: for MIC: Escherichia coli, ATCC25922, E. coli
[1] = S. aureus, Alamar Blue read after overnight incubation at 35° C.
[2] = E. coli, Alamar Blue read after overnight incubation at 35° C.
[3] = Alamar Blue read after overnight incubation at 35° C.

Row | SMILES | MIC Sa (S. aureus ATCC 13709; [1]) [µg/mL] | MIC Ec (E. coli ATCC 25922; [2]) [µg/mL] | MIC (S. aureus ATCC 13709; [3]) [µg/mL] | MIC (E. coli ATCC 25922; [3]) [µg/mL] | also measured
1 | CNc1ncc(Oc2nc(N3CCC(N)C3)c3c(n2)[nH]c2c(NC)cc(F)cc23)cn1 (centres unmarked) [4.219] | ≤0.5 | ≤0.5 | – | – | –
2 | CNc1cc(F)cc2c1[nH]c1nc(Oc3cncnc3)nc(N3CC4CCC(N)C4C3)c12 (centres unmarked) [4.016] | – | – | ≤ 0.5 | 1 (≈ 2.3 µM) | –
3 | CNc1cccc2c1[nH]c1nc(Oc3cncnc3)nc(N3CCC(N)CC3)c12 [3.64] | – | – | 16 (≈ 41 µM) | 64 (≈ 164 µM) | –
4 | CNc1cc(F)cc2c1[nH]c1nc(Oc3cnc(C#N)c(C)c3)nc(N3C[C@H](N)C4(CC4)C3)c12 [4.324] | ≤0.5 | ≤0.5 | – | – | –
5 | COc1nccc2c1[nH]c1nc(Sc3cnc4cccnc4c3)nc(N3CC4C(N)C4C3)c12 (centres unmarked) [7.03] | – | – | 2 (≈ 4.38 µM) | > 64 | –
6 | CNc1cc(F)cc2c1[nH]c1nc(Oc3cnc(CC(=O)N4CC(N(C)C)C4)nc3)nc(N3C[C@H](N)C4(CC4)C3)c12 [4.373] | – | – | 2 (≈ 3.57 µM) | 8 (≈ 14.3 µM) | –
7 | Cc1ncc(Oc2nc(N3C[C@H](N)C4(CC4)C3)c3c(n2)[nH]c2c(N(C)C(=O)[C@H](C)NC(=O)[C@H](C)N)cc(F)cc23)cn1 [4.425] | – | – | > 16 | > 16 | –
8 | CNc1nccc2c1[nH]c1nc(Sc3cnc4nccnc4c3)nc(N3CC[C@@H](N)C3)c12 [7.01] | – | – | 8 (≈ 18 µM) | > 64 | –
9 | CNc1cc(F)cc2c1[nH]c1nc(Oc3cnc(C(C)C)nc3)nc(N3CC4CC(N)C4C3)c12 (centres unmarked) [4.234] | ≤0.5 | 1 (≈ 2.16 µM) | – | – | –
10 | CNc1cccc2c1[nH]c1nc(Oc3cncnc3)nc(N3C/C(=N\OC)[C@@H](N)C3)c12 [3.62] | – | – | ≤ 0.5 | 8 (≈ 19.1 µM) | –
11 | CNc1cc(F)cc2c1[nH]c1nc(Oc3cnc(N4CC(C)(N)C4)nc3)nc(N3CC4C(N)C4C3)c12 (centres unmarked) [4.339] | ≤0.5 | 1 (≈ 2.04 µM) | – | – | –
12 | CNc1cc(F)cc2c1[nH]c1nc(Oc3cnc(N4CC(C)(N)C4)nc3)nc(N3C[C@H](N)C4(CC4)C3)c12 [4.340] | 1 (≈ 1.98 µM) | 2 (≈ 3.96 µM) | – | – | –
13 | CNc1cc(F)cc2c1[nH]c1nc(Oc3cncc(Cl)c3)nc(N3CC4CC(N)C4C3)c12 (centres unmarked) [4.271] | ≤0.5 | ≤0.5 | – | – | –
14 | CNc1cc(F)cc2c1[nH]c1nc(Oc3cnc(C)nc3)nc(N3CCC(C)(N)CC3)c12 [4.135] | ≤0.5 | 1 (≈ 2.29 µM) | – | – | –
15 | CNc1ncc(Oc2nc(N3CC4CC(N)C4C3)c3c(n2)[nH]c2c(NC)cc(F)cc23)cn1 (centres unmarked) [4.221] | – | – | ≤ 0.5 | 2 (≈ 4.45 µM) | –
16 | CNc1cc(C(F)(F)F)cc2c1[nH]c1nc(Oc3cnc(C)nc3)nc(N3CC4C(N)C4C3)c12 (centres unmarked) [6.10] | – | – | – | – | MIC Sa (S. aureus ATCC 13709): ≤0.5 µg/mL; MIC Ec (E. coli ATCC 25922): ≤0.5 µg/mL
17 | CCNc1cccc2c1[nH]c1nc(Sc3cnc4ccc[n+]([O-])c4c3)nc(N3CC4C(N)C4C3)c12 (centres unmarked) [1.10] | – | – | ≤ 0.5 | 4 (≈ 8.25 µM) | –
18 | CNc1cc(F)cc2c1[nH]c1nc(Oc3cnc(C)nc3)nc(NC3CCCC[C@@H]3N)c12 (some centres unmarked) [4.109] | ≤0.5 | 1 (≈ 2.29 µM) | – | – | –
19 | CNc1cccc2c1[nH]c1nc(Oc3cncnc3)nc(N3C[C@@H](N)C4(CC4)C3)c12 [3.46] | – | – | 2 (≈ 4.97 µM) | 4 (≈ 9.94 µM) | –
20 | CNc1cc(F)cc2c1[nH]c1nc(Oc3cncnc3)nc(N3C[C@@H](N)C4(CC4)C3)c12 [4.006] | – | – | ≤ 0.5 | 1 (≈ 2.38 µM) | –
21 | CNc1cc(F)cc2c1[nH]c1nc(Oc3cncc(-c4nnn(C)n4)c3)nc(N3CC4C(N)C4C3)c12 (centres unmarked) [4.210] | ≤0.5 | 1 (≈ 2.05 µM) | – | – | –
22 | CNc1cccc2c1[nH]c1nc(Sc3cnc4ccc[n+]([O-])c4c3)nc(N3CC(CNC(=O)c4cn(C)nc4C(F)(F)F)C3)c12 [1.21] | – | – | ≤ 0.5 | > 64 | –
23 | CNc1cc(F)cc2c1[nH]c1nc(Oc3cnc(CO)nc3)nc(N3CC4(CC[C@H]4N)C3)c12 [4.388] | – | – | ≤ 0.5 | ≤ 0.5 | –

Row | SMILES | MIC Sa (S. aureus ATCC 13709; [1]) [µg/mL] | MIC Ec (E. coli ATCC 25922; [2]) [µg/mL] | MIC (S. aureus ATCC 13709; [3]) [µg/mL] | MIC (E. coli ATCC 25922; [3]) [µg/mL] | also measured
24 | CNc1cc(F)cc2c1[nH]c1nc(Oc3cnc(C)nc3)nc(N3CC4CCCC(N)C4C3)c12 (centres unmarked) [4.086] | ≤0.5 | 2 (≈ 4.32 µM) | – | – | –
25 | CNc1ncnc2c1[nH]c1nc(Oc3cncc(F)c3)nc(N3CC(N)C4(CC4)C3)c12 (centres unmarked) [7.06] | – | – | 8 (≈ 19 µM) | 64 (≈ 152 µM) | –
26 | CNc1cc(F)cc2c1[nH]c1nc(Oc3cnc(C)nc3)nc(N3CCC4CNC4C3)c12 (centres unmarked) [4.081] | ≤0.5 | 1 (≈ 2.3 µM) | – | – | –
27 | CNc1cccc2c1[nH]c1nc(Oc3cnc(C)nc3)nc(N3C[C@@H](N)C4(CC4)C3)c12 [3.48] | – | – | 2 (≈ 4.8 µM) | 8 (≈ 19.2 µM) | –
28 | CNc1cc(F)cc2c1[nH]c1nc(Oc3cncnc3)nc(N3CC4CNC4C3)c12 (centres unmarked) [4.008] | – | – | ≤ 0.5 | ≤ 0.5 | –
29 | CNc1cc(F)cc2c1[nH]c1nc(Oc3cnc(C)nc3)nc(N3CC4(CC(N)C4)C3)c12 [4.153] | ≤0.5 | 2 (≈ 4.6 µM) | – | – | –
30 | CNc1cc(F)cc2c1[nH]c1nc(Oc3cnc(COC)nc3)nc(N3CC4CC(N)C4C3)c12 (centres unmarked) [4.344] | – | – | ≤ 0.5 | 2 (≈ 4.31 µM) | –
31 | CNc1cccc2c1[nH]c1nc(Sc3cnc4ccc[n+]([O-])c4c3)nc(N3C[C@@H]4[C@@H](CN)[C@@H]4C3)c12 [1.18] | – | – | ≤ 0.5 | 2 (≈ 4.13 µM) | –
32 | CNc1cc(F)cc2c1[nH]c1nc(Oc3cncnc3)nc(N3CC4C[C@@H](N)C4C3)c12 (some centres unmarked) [4.028] | – | – | ≤ 0.5 | ≤ 0.5 | –
33 | CNc1cc(F)cc2c1[nH]c1nc(Oc3ccc(C#N)nc3)nc(N3CCC(N)C3)c12 (centres unmarked) [4.331] | ≤0.5 | ≤0.5 | – | – | –
34 | CNc1cc(F)cc2c1[nH]c1nc(Oc3cnc(N)nc3)nc(N3CCC4(CC4N)C3)c12 (mixture of isomers) [4.174] | ≤0.5 | ≤0.5 | – | – | –
35 | CNc1cc(C)cc2c1[nH]c1nc(Oc3cncnc3)nc(N3CC4C(N)C4C3)c12 (centres unmarked) [6.27] | – | – | – | – | MIC Sa (S. aureus ATCC 13709): ≤0.5 µg/mL; MIC Ec (E. coli ATCC 25922): 1 µg/mL (≈ 2.48 µM)
36 | CNc1cc(F)cc2c1[nH]c1nc(Oc3cncc(-c4nn[nH]n4)c3)nc(N3CC4C(N)C4C3)c12 (centres unmarked) [4.224] | – | – | 1 (≈ 2.11 µM) | > 16 | –
37 | CNc1cc(F)cc2c1[nH]c1nc(Oc3cnc(N4CC(S(=O)(=O)CC5CC5)C4)nc3)nc(N3CC4C(N)C4C3)c12 (centres unmarked) [4.337] | ≤0.5 | 1 (≈ 1.73 µM) | – | – | –
38 | CNc1cc(F)cc2c1[nH]c1nc(Oc3cnc(C4CCC4)nc3)nc(N3CC4CC(N)C4C3)c12 (centres unmarked) [4.285] | – | – | ≤ 0.5 | ≤ 0.5 | –
39 | CNc1cc(F)cc2c1[nH]c1nc(Oc3ccc4ncsc4c3)nc(N3C[C@H]4CC[C@@H](N)[C@H]4C3)c12 [4.320] | – | – | ≤ 0.5 | 1 (≈ 2.04 µM) | –
40 | CNc1cccc2c1[nH]c1nc(Sc3cnc4cccnc4c3)nc(N3CCC4(CCNCC4)C3)c12 [1.56] | – | – | 4 (≈ 8.05 µM) | 32 (≈ 64.4 µM) | –
41 | CCc1cc(F)cc2c1[nH]c1nc(Oc3cncnc3)nc(N3CC4C(N)C4C3)c12 (centres unmarked) [2.2] | – | – | 2 (≈ 4.93 µM) | 4 (≈ 9.87 µM) | –
42 | CNc1cc(F)cc2c1[nH]c1nc(Oc3cnc(C(N)=O)nc3)nc(N3C[C@H]4C[C@@H](N)[C@H]4C3)c12 [4.374] | – | – | ≤ 0.5 | 4 (≈ 8.63 µM) | –
43 | CNc1cc(F)cc2c1[nH]c1nc(Oc3cnc4c(c3)OCCO4)nc(N3C[C@H](N)C4(CC4)C3)c12 [4.295] | – | – | ≤ 0.5 | ≤ 0.5 | –
44 | CNc1cccc2c1[nH]c1nc(Sc3cnc4ccc[n+]([O-])c4c3)nc(N3CC4C(N)C4C3)c12 (centres unmarked) [1.49] | ≤0.5 | – | – | – | –
45 | CNc1cccc2c1[nH]c1nc(Sc3cnc4ccc[n+]([O-])c4c3)nc(N3CC4C(N)C4C3)c12 (centres unmarked) [1.71] | ≤0.5 | – | – | – | –
46 | CNc1cccc2c1[nH]c1nc(Sc3cnc4ccc[n+]([O-])c4c3)nc(N3CC4C(N)C4C3)c12 (centres unmarked) [1.23] | ≤0.5 | – | – | – | –
